Experiments:
[1] = target: T1, recombinant Nav 1.3 channels (Homo sapiens, UniProt Q9NY46); assay: Patch clamp studies of sodium currents inhibition in HEK293 cells; type: cell-based; conditions: tonic block, preconditioning −50 mV (half maximal steady-state inactivated condition); read-out: IC50 (Vhalf)
T1 construct: expressed in transfected cells; host or cells: HEK293 cells
Method: Cells and methods: Functional inhibition of the sodium currents was studied using whole cell patch clamp methods (Hamill O. P., Marty A., Neher E., Sakmann B., Sigworth F. J., Pflugers Arch. (1981) 391 (2): 85-100) on HEK293 cells expressing recombinant Nav 1.3 channels. Membrane currents were recorded as described in the example above.
For sodium current recording control bath solution contained (mM): NaCl (80), Choline chloride (38), CaCl2 (1.3), MgCl2 (2), KCl (2), CdCl2 (0.4), NiCl2 (0.3), TEA.Cl (20), Hepes (10), Glucose (10). Internal pipette solution consisted of (mM): EGTA (10), NaCl (10), CaCl2 (1.3), MgCl2 (2), Hepes (10), CsF (130), MgATP (1).
Compounds were dissolved as 20 mM stock solutions in DMSO and then diluted to the final concentration in the external solutions.
Voltage protocols and data analyses: A two-step protocol was used to determine the voltage dependence of the block:
sodium current was activated by a 30 ms step pulse to 10 mV (test pulse) from a 2000 ms preconditioning potential of −100 mV (resting condition) or −50 mV (half maximal steady-state inactivated condition), respectively.
The amplitude of sodium current peaks evoked by the respective test pulses at a frequency of 0.06 Hz were measured before and after exposure to the test substance. Tonic block of currents was calculated as the difference between the Nacurrent peak measured at the end of a stabilization period in the control external bath solution and the current peak measured at the end of test substance perfusion period (when steady state is reached) divided by control peaks. Drug concentration-inhibition curves were obtained by plotting tonic blocks versus drug concentrations. Dose-response curves were fitted to the tonic block data, according to the logistic equation: y=A2+(A1−A2)/[1+(x/IC50)^p]. A1 and A2 are fixed values of 0 and 1 corresponding to 0 and 100% current inhibition, x is the drug concentration, IC50 is the drug concentration resulting in 50% current inhibition and p is the corresponding slope factor.

TTXs sodium channels = assay: TTXs-sodium channel influx assay (membrane potential fluorescence); type: cell-based, rat; conditions: ND7/23 cells, veratridine 100 μM
Method: ND7/23 rat dorsal root ganglion-derived cell line endogenously expresses a mixed population of TTXs sodium channels (such as Nav1.3, Nav1.2, Nav1.1, Nav1.6). These cells lack of TTXr sodium channels as shown by the absence of their respective transcripts. ND7/23 cells were grown in DMEM supplemented with 10% FBS and 1 mM sodium piruvate.
The cells were seeded at 50,000 cells/well on 96 poly-L-lysine-coated plates and further incubated for 18-24 h before use.
The Membrane Potential Kit Assay (Molecular Devices), based on a negatively charged fluorescent dye able to monitor changes in membrane potential caused by the sodium influx due to the channel opening, was used for the assay.
Cells were incubated with the dye loading for 30 minutes at 25° C. Then, 100 nM of the toxin Anemonia sulcata (used as enhancer of the channel opener response) alone or in the presence of TTX (as reference standard) or test compound were added for further 15 minutes.
The fluorescence (excitation: 530 nm, emission: 565 nm wavelength) was measured before and after (40-45 s) the automated injection of the sodium channel opener veratridine (100 μM) using a Victor plate reader (Perkin Elmer).
The inhibition curves were calculated from 5 concentrations, each in triplicate, and the IC50 determined using a linear regression analysis.

[2] = system: chronic constriction injury model in the rat; assay: Bennett model of neuropathic pain in rats (cold allodynia); type: in vivo; conditions: AUD of cold allodynia as percent inhibition of vehicle control
Method: Effects on neuropathic pain are tested in the chronic constriction injury model in the rat (Bennett, G. J. and Xie, Y. K., A peripheral mononeuropathy in rat that produces disorders of pain sensation like those seen in man, Pain, 33 (1988) 87-107). Under pentobarbital anesthesia (Nembutal, 50 mg/kg, i.p.), unilateral multiple ligations are performed on male Sprague-Dawley rats (140-160 g) at the right common sciatic nerve. The sciatic nerve is exposed by blunt dissection at the level of mid-thigh and four loose ligatures (5-0 chromic catgut) are placed around the nerve taking care not to interrupt the epineural circulation. After operation, animals are allowed to recover for one week. Animals develop a cold allodynia which is stable for at least five weeks. […] The animals, randomly assigned to groups of 10 for each test dose and vehicle, are observed for periods of 2 minutes before and after application of test compound and the number of brisk withdrawal reactions is counted. […] Percent maximal possible effect (% MPE) and standard error of the mean (SEM) of each time point is determined with the pre-test value used as […]. The area under the data (AUD) is calculated for the observation period and expressed as percent inhibition of vehicle control as shown in Table 8. Significance is calculated by paired t-test on the percent AUD values.

T1 sequence (Q9NY46 whole entry): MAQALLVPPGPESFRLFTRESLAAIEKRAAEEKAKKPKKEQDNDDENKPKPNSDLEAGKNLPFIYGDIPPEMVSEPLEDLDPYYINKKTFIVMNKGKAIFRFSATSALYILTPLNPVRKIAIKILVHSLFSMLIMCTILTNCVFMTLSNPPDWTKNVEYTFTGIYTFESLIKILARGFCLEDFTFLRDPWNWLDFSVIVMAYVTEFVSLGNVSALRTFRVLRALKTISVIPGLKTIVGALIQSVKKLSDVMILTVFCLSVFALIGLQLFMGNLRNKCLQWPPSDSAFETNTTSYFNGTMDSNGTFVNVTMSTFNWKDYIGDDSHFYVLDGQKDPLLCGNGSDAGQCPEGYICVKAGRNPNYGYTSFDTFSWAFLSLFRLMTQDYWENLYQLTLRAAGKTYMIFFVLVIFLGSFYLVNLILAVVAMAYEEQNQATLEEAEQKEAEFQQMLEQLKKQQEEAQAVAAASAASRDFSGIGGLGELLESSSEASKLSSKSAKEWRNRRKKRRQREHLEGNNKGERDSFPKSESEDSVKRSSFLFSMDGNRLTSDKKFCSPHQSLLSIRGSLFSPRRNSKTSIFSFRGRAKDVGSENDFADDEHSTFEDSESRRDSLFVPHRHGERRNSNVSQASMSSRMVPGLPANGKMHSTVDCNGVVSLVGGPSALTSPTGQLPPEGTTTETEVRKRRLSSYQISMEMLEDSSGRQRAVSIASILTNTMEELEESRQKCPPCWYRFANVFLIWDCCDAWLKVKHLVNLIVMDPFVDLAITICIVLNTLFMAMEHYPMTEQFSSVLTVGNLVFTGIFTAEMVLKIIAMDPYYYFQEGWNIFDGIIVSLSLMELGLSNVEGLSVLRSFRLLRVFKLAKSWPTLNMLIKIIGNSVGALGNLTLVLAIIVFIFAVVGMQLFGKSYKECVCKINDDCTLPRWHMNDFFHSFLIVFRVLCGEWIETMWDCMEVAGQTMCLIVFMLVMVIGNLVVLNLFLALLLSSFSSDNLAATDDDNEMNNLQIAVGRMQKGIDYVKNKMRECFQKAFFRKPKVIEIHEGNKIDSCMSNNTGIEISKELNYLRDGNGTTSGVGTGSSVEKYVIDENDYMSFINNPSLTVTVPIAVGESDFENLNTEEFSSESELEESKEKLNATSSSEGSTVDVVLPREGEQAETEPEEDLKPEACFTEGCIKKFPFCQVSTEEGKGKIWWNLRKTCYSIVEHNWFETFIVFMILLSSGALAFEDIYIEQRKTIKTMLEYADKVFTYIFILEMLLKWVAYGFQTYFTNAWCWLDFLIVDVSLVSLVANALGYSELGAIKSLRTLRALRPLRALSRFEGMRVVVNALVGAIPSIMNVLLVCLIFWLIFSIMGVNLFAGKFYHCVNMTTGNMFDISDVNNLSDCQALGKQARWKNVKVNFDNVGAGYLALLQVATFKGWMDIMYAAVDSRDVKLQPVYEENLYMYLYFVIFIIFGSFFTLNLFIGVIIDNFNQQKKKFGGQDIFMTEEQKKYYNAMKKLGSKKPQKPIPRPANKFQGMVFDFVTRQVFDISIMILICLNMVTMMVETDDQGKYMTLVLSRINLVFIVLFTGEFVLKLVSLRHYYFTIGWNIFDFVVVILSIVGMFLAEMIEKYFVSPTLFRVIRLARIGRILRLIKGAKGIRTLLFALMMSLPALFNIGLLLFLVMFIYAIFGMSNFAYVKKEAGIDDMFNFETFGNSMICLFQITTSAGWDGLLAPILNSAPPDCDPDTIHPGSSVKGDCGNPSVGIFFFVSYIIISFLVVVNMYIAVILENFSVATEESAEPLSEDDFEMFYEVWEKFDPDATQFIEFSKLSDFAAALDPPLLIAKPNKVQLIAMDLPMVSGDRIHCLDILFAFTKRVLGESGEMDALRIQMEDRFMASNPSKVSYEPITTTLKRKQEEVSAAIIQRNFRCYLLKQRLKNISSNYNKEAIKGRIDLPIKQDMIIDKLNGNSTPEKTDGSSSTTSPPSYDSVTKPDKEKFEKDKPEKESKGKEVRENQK

Row | Structure (SMILES) | IC50 [1] [µM] | IC50 (TTXs sodium channels) [µM] | Change vs. Control ([2]; 0.1 mg/kg p.o.) [%] | Change vs. Control ([2]; 1.0 mg/kg p.o.) [%]
1 | CCCCOc1cccc(CCN(CC(=O)N(C)C)CC2CCOC2)c1.Cl (racemic) [Example 96, 2-[[2-(3-Butoxy-phenyl)-ethyl]-(tetrahydrofuran-3-ylmethyl)amino]-N,N-dimethyl-acetamide hydrochloride] | 3.1 | 2 | 35.7 | 
2 | C[C@H](NCc1ccc(OCc2ccccc2F)cc1)C(N)=O [ralfinamide, (S)-(+)-2-[4-(2-fluoro-benzyloxy)-benzylamino]-propanamide, reference compound] | 15 | 9.5 |  | 23.7

— US8129427B2, “2-phenylethylamino derivatives as calcium and/or sodium channel modulators” (Newron Pharmaceuticals S.p.A., priority 2005, dated 2012)
